According to patent US20070111208A1, “Determination of free fractions” (Bayer HealthCare AG, priority 2003, published 2007):

Assays:
rat plasma [1] = assay: Protein binding via distribution between diluted plasma and Transil (rat plasma); type: in vitro ADME; details: Method A (Transil); Wistar rat, male; about 200 μg/l; LC/MS-MS or HPLC
Method: Protein binding of all drugs was determined via partitioning between diluted plasma and Transil® in vitro. All incubations were performed in glass tubes. An isotonic potassium phosphate buffer, pH 7.4 (Dulbeccos PBS, Sigma D8534) was used for diluting the plasma.
The total incubation volume was generally between 0.3 and 1 ml. The diluted plasma (150 to 980 μl) of the test species was pipetted into glass tubes and Transil® (10 to 300 μl) was added. The test substance dissolved in a small volume of a suitable solvent was added to the Transil®-plasma suspensions.
The degree of the dilution and the Transil®-volume should be chosen with respect to the expected fu value. […]
The radioactivity concentration in the suspension was determined directly after incubation. The radioactivity concentration (or the drug concentration in the case of HPLC or LC/MS-MS analytics) in plasma was determined after centrifugation.
The free fraction in diluted plasma was calculated as the ratio of the partition coefficients for the Transil®/plasma′ (MAplasma) and the Transil®/buffer distribution (MAbuffer).
In a second experiment, the total amount in the Transil®-plasma suspension and the concentration in diluted plasma, Cplasma′, were determined. The partitioning between Transil® and the diluted plasma (the apparent membrane affinity in diluted plasma), MAplasma′, was calculated as: [formula] […]

rat plasma [2] = assay: Erythrocyte plasma partitioning (rat plasma); type: in vitro ADME; details: Method B (erythrocyte plasma partitioning); Wistar rat, male; about 200 μg/l
Method: Ultrafiltration, equilibrium dialysis and the determination of the free fraction of a drug via distribution between erythrocytes and plasma were performed as previously described^8,12.

O=C(NC[C@H]1CN(c2ccc(N3CCOCC3=O)cc2)C(=O)O1)c1ccc(Cl)s1 [Drug III]
fu (rat plasma [1]): 1.62%
fu (rat plasma [2]): 1.49%
